Reference: patent US20250034136A1 (Nimbus Wadjet, Inc., priority 2023, published 2025)

Assays:
[1] = system: p21 induction in HCT116 cells; experiment: p21 induction in HCT116 cells; format: cell-based; conditions: Homo sapiens, HCT-116, 24 h, HCT116 cells, 24 h compound incubation; read-out: P21_EC50
How it was run: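 HCT116 cells, 2,000/well, treated 24 h at 37 °C with 11-point compound dilutions in duplicate. Fixed, then immunostained for p21 and GAPDH and read by near-IR imaging at 800/700 nm. Normalized to DMSO (low) and reference WRN inhibitor (high) controls; EC50 from non-linear regression.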

[2] = molecular target: WRN (BV08), human Werner helicase (Uniprot Q14191, amino acids 517-1235 with L1074F point mutation) (Homo sapiens (Human), UniProt Q14191, L1074F); experiment: WRN (BV08) ADP-Glo assay; format: biochemical; conditions: class symbols A-E, read-out: ADP-Glo_hWRN_IC50
WRN (BV08), human Werner helicase (Uniprot Q14191, amino acids 517-1235 with L1074F point mutation), sequence (Q14191 other isoform, or with tags, fused parts or gaps L1074F (already in the parent)): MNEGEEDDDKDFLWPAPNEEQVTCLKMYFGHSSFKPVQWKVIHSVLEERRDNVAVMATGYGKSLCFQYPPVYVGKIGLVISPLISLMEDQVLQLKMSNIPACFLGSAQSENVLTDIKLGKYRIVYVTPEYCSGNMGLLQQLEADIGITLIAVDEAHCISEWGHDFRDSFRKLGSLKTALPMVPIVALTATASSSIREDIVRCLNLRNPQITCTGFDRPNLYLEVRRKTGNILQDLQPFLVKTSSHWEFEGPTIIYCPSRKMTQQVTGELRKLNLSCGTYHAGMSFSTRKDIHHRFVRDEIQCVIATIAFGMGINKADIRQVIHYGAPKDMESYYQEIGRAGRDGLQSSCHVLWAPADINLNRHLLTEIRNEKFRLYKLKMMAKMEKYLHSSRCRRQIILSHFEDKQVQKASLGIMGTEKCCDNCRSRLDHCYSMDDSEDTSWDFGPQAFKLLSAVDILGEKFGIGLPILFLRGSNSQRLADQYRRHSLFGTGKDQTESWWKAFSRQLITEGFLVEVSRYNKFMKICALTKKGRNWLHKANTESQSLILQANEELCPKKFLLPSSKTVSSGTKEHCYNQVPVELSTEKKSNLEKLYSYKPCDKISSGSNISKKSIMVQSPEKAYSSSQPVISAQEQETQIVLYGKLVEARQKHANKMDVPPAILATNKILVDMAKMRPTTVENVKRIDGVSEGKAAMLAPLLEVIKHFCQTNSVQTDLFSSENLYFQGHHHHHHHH

| EC50 [1] [nM] | IC50 [2] [nM] | SMILES |
| --- | --- | --- |
| < 500 | 5 to 50 | CCc1c(N2CCN(C(=O)c3ncnc(C)c3O)[C@H]3CC[C@@H]32)c(=O)c2nc(N(C)[C@@H]3CC[C@H](O)C3)cnc2n1CC(=O)Nc1ccc(C(F)(F)F)cc1Cl [I-300, N-[2-chloro-4-(trifluoromethyl)phenyl]-2-{6-ethyl-7-[(1S,6S)-5-(5-hydroxy-6-methylpyrimidine-4-carbonyl)-2,5-diazabicyclo[4.2.0]octan-2-yl]-2-{[(1R,3S)-3-hydroxycyclopentyl](methyl)amino}-8-oxo-5H,8H-pyrido[2,3-b]pyrazin-5-yl}acetamide] |
| < 500 | 5 to 50 | CCc1c(N2CCN(C(=O)c3ncnc(C)c3O)[C@H]3CC[C@@H]32)c(=O)c2nc(N(C)[C@@H]3CC[C@@H](O)C3)cnc2n1CC(=O)Nc1ccc(C(F)(F)F)cc1Cl [I-301, N-[2-chloro-4-(trifluoromethyl)phenyl]-2-{6-ethyl-7-[(1S,6S)-5-(5-hydroxy-6-methylpyrimidine-4-carbonyl)-2,5-diazabicyclo[4.2.0]octan-2-yl]-2-{[(1R,3R)-3-hydroxycyclopentyl](methyl)amino}-8-oxo-5H,8H-pyrido[2,3-b]pyrazin-5-yl}acetamide] |
| < 500 | 5 to 50 | CCc1c(N2CCN(C(=O)c3ncnc(C)c3O)[C@H]3CC[C@@H]32)c(=O)c2nc(N(C)[C@H]3CC[C@@H](O)C3)cnc2n1CC(=O)Nc1ccc(C(F)(F)F)cc1Cl [I-302, N-[2-chloro-4-(trifluoromethyl)phenyl]-2-{6-ethyl-7-[(1S,6S)-5-(5-hydroxy-6-methylpyrimidine-4-carbonyl)-2,5-diazabicyclo[4.2.0]octan-2-yl]-2-{[(1S,3R)-3-hydroxycyclopentyl](methyl)amino}-8-oxo-5H,8H-pyrido[2,3-b]pyrazin-5-yl}acetamide] |
